The values below come from EP4685144A1, “NON-FLUORESCENT COMPOUND AND USES THEREOF” (SFC Co., Ltd., priority 2023, dated 2024).

One data set can be described thus: Photophysical properties of the non-fluorescent compounds in DMSO solvent. It is filed as physicochemical. Set-up: εmax: unit not given here.
Details: not given
The source says:
The photophysical properties measured in DMSO solvent for the non-fluorescent compounds synthesized according to the above synthesis examples are shown in Table 1 below.
`C[n+]1c(C=CC=c2c3cccc4cccc(c43)n2CCCCCC(=O)O)sc2ccccc21` [Dye 2]: the maximum absorption wavelength result is “above 650 nm”.

Turning to `Cn1c(=CC=CC2=[N+](CCCCCC(=O)O)c3c(ccc4ccccc34)C2(C)C)c2cccc3cccc1c32` [Dye 16], the maximum absorption wavelength result is “above 650 nm”.

For the molecule `CCn1c(=CC=CC2=[N+](CCCC(=O)O)c3c(ccc4c3c3ccccc3n4C)C2(C)C)c2cccc3cccc1c32` [Dye 17], the maximum absorption wavelength result is “above 650 nm”.

Still in this data set, the particulars now being: DMSO solvent.
With `C[n+]1c(C=CC=c2c3cccc4cccc(c43)n2CCCCCC(=O)O)sc2ccccc21` [Dye 2], the “Quantum Yield(Φ)” value was 0.006, the εmax is listed as 28,000 and the λabs came out at 664 nm.

In the case of `Cn1c(=CC=CC2=[N+](CCCCCC(=O)O)c3ccccc3C2(C)C)c2cccc3cccc1c32` [Dye 6], the “Quantum Yield(Φ)” value was determined as 0.005, the εmax is recorded as 75,000 and the λabs was 672 nm.

Consider `Cn1c(=CC=CC2=Nc3c(ccc[n+]3CCCCCC(=O)O)C2(C)C)c2cccc3cccc1c32` [Dye 12], for which the “Quantum Yield(Φ)” value came to 0.002, the εmax is given as 53,000 and the λabs was found to be 676 nm.

For `Cn1c(=CC=CC2=[N+](CCCCCC(=O)O)c3c(ccc4ccccc34)C2(C)C)c2cccc3cccc1c32` [Dye 16], the “Quantum Yield(Φ)” value turned out to be 0.001, the εmax is 68,000 and the λabs was found to be 692 nm.

Regarding `CCn1c(=CC=CC2=[N+](CCCC(=O)O)c3c(ccc4c3c3ccccc3n4C)C2(C)C)c2cccc3cccc1c32` [Dye 17], the “Quantum Yield(Φ)” value is 0.002, the εmax was 37,000 and the λabs amounted to 672 nm.

Take `CCn1c(=CC=CC=CC2=[N+](CCCCCC(=O)O)c3cc4c(cc3C2(C)C)-c2ccccc2C4(C)C)c2cccc3cccc1c32` [Dye 18]: the “Quantum Yield(Φ)” value came to 0.005, the εmax is given as 74,000 and the λabs is 680 nm.

Turning to `Cn1c(=CC=CC2=[N+](CCCCCC(=O)O)c3ccc4sc5ccccc5c4c3C2(C)C)c2cccc3cccc1c32` [Dye 48], the “Quantum Yield(Φ)” value is 0.001, the εmax is 65,000 and the λabs was determined as 690 nm.

Turning to `C[n+]1c(C=CC=c2c3cccc4cccc(c43)n2CCCCCC(=O)O)oc2c3ccccc3ccc21` [Dye 60], the “Quantum Yield(Φ)” value is recorded as 0.007, the εmax is 42,000 and the λabs was 600 nm.

For `CC[n+]1c(C=CC=c2c3cccc4cccc(c43)n2CCCCCC(=O)O)sc2ccc3ccccc3c21` [Dye 61], the “Quantum Yield(Φ)” value was determined as 0.002, the εmax is 24,000 and the λabs is 630 nm.

Experiment in a further data set: not given
Particulars: commercially available quencher; cited from earlier work.
With `CCN(CC)c1ccc2nc3ccc(/N=N/c4ccc(N(C)CCCC(=O)O)cc4)cc3[n+](-c3ccccc3)c2c1` [BHQ-3], the “absorbs light in the range” value is reported as 650-700 nm.
